Values joined by “and” are separate entries in the source; they are usually repeats but may differ in a detail not shown here. Equal entries are not always repeated.
Test system: 922993-354-T-J3-PDC complex spheroids, viability, % test/control
Assay: Anticancer human tumor 922993-354-T-J3-PDC patient-derived endometrial carcinoma cell line growth inhibition [CLK]
Details: for viability, T/C: stronger effect = lower value
Text: A high-throughput screen of multi-cell type tumor spheroids was designed to identify active combinations of […] and targeted small molecules. Complex spheroids include a stromal component modeled by human endothelial cells (HUVEC) and fibroblasts modeled by human mesenchymal stem cells (MSCs). The concentration ranges selected for each drug and investigational agent were based upon clinically achievable concentrations if the clinical Cmax of the agent was known.
Compounds. The drugs and investigational agents: cirtuvivint (SM08502; NSC835563), CC-671 (NSC850746), vemurafenib (NSC761431), tapotoclax (NSC804041), sotorasib (NSC818433), adagrasib (NSC831453), MRTX-1133 (NSC836407), BAY2416964 (NSC825713), copanlisib (NSC816437), inavolisib (NSC800729), abemaciclib (NSC768073), osimertinib (NSC779217), entinostat (NSC756642), eltanexor (KPT-8602, NSC794443), venetoclax (NSC766270), ceralasertib (NSC777638), bortezomib (NSC756655), olaparib (NSC753686), talazoparib (NSC767125), alisertib (NSC759677), peposertib (NSC802822), gemcitabine (NSC613327), 5-fluorouracil (NSC19893), SN-38 (NSC673596), oxaliplatin (NSC266046), paclitaxel (NSC125973), and doxorubicin (NSC123127), were obtained from the National Cancer Institute (NCI) Developmental Therapeutics Program Chemical Repository. The FDA-approved anticancer drug set is available from the Developmental Therapeutics Program at https://dtp.cancer.gov/organization/dscb/obtaining/available plates.htm. […] The stock solutions were prepared in dimethyl sulfoxide (DMSO, Sigma-Aldrich, St. Louis, MO, cat. D2650), except for the platinum complexes which were prepared in saline (Quality Biological, Gaithersburg, MD, cat. 114-055-101), at 800-fold the tested concentration and stored at -70 degrees C prior to their use. All drugs and investigational agents were tested over a range starting from a high concentration at or near the clinical Cmax and decreasing in half-log increments. If the clinical Cmax for an agent had not been determined, the highest concentration tested was 10 microM.
Cell Culture. All cells were maintained in an incubator at 37 degrees C and 5% CO2 with 95% humidity. The PDC lines were cultured according to standard operating procedures established by the NCI PDMR. Briefly, all PDCs were thawed and cultured in Matrigel-coated flasks prepared with a working solution of 1X Ham's F-12 nutrient mix, without supplementation (Invitrogen, Waltham, MA, cat. 11765054), 100 U/mL penicillin-streptomycin (Invitrogen, cat. 15140122), and 2.5% Matrigel (Corning Inc., Corning, NY, cat. 354248) for the first three passages. The 947758-054-R-J2-PDC line was cultured in 6B/Colon 1A media, which includes advanced DMEM/F-12 (Thermo Fisher Scientific, cat. 12634028), 10 mM HEPES (Thermo Fisher Scientific, cat. 15630080), 1X GlutaMAX supplement (Thermo Fisher Scientific, cat. 35050061), 0.1 mg/mL primocin (InvivoGen, cat. ant-pm-2), 10% defined fetal bovine serum, heat inactivated (HyClone Laboratories Inc., cat. SH30070.03HI), 1.25 mM N-Acetyl-L-cysteine (Sigma-Aldrich, cat. A9165), 10 mM nicotinamide (Sigma-Aldrich, cat. N0636), 1X B-27 supplement (Thermo Fisher Scientific, cat. 17504044), 1X N-2 supplement (Thermo Fisher Scientific, cat. 17502048), and 10 microM Y-27632 dihydrochloride (Tocris Bioscience, cat. 1254). The 876862-298-R-J1-PDC was cultured in 6E media, which includes all 6B/Colon 1A media components plus 50% L-WRN conditioned media (ATCC, cat. CRL-3276), 50 ng/mL recombinant human EGF recombinant protein (hEGF; Thermo Fisher Scientific, cat. PHG0311), 10 ng/mL recombinant human fibroblast growth factor 10 (hGFG-10; PeproTech, cat. 100-26), 1 ng/mL recombinant human fibroblast growth factor 2 (hFGF-2; PeproTech, cat. 100-18B), and 1 µM prostaglandin E2 (PGE2; Tocris, cat. 2296). The 227483-062-R1-J1-PDC line was cultured in Panc media, containing all 6E components except hFGF-2, with the addition of 500 nM SB-431542 (Selleckchem, cat. S1067) and 10 nM gastrin (Tocris, cat. 3006). […]

[1] = curve of first compound, second compound 0.0316 µM
[2] = curve of first compound, second compound 0.1 µM
[3] = curve of first compound, second compound 0.316 µM
[4] = curve of first compound, second compound 1 µM
[5] = curve of first compound, second compound 3.16 µM
[6] = curve of first compound, second compound 10 µM
[7] = second compound 0.0316 µM, first compound 0.0316 µM
[8] = second compound 0.0316 µM, first compound 0.1 µM
[9] = second compound 0.0316 µM, first compound 0.316 µM
[10] = second compound 0.0316 µM, first compound 1 µM
[11] = second compound 0.1 µM, first compound 0.0316 µM
[12] = second compound 0.1 µM, first compound 0.1 µM
[13] = second compound 0.1 µM, first compound 0.316 µM
[14] = second compound 0.1 µM, first compound 1 µM
[15] = second compound 0.316 µM, first compound 0.0316 µM
[16] = second compound 0.316 µM, first compound 0.1 µM
[17] = second compound 0.316 µM, first compound 0.316 µM
[18] = second compound 0.316 µM, first compound 1 µM
[19] = second compound 1 µM, first compound 0.0316 µM
[20] = second compound 1 µM, first compound 0.1 µM
[21] = second compound 1 µM, first compound 0.316 µM
[22] = second compound 1 µM, first compound 1 µM
[23] = second compound 3.16 µM, first compound 0.0316 µM
[24] = second compound 3.16 µM, first compound 0.1 µM
[25] = second compound 3.16 µM, first compound 0.316 µM
[26] = second compound 3.16 µM, first compound 1 µM
[27] = second compound 10 µM, first compound 0.0316 µM
[28] = second compound 10 µM, first compound 0.1 µM
[29] = second compound 10 µM, first compound 0.316 µM
[30] = second compound 10 µM, first compound 1 µM
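Also: spheroids exposed to the agents for 7 days before readout.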

CNC(=O)c1ccc(Nc2nc(OC3CCCC3)c3c(-c4ccc5nc(C)oc5c4)c[nH]c3n2)c(OC)c1
viability, T/C (compound 0.0316 µM): 106% [middle of 12 runs]
viability, T/C (compound 0.1 µM): 107% [middle of 12 runs]
viability, T/C (compound 1 µM): 39.3% [middle of 12 runs]
viability, T/C (compound 3.16 µM): 34.4% [middle of 12 runs]
viability, T/C (compound 10 µM): 33.4% [middle of 12 runs]
IC50 (compound alone, run of 09/19/2023): 557 nM [middle of 12 runs]

COc1c(OCCCN2CCOCC2)ccc2c3n(c(=NC(=O)c4cnc(N)nc4)nc12)CCN3 + CNC(=O)c1ccc(Nc2nc(OC3CCCC3)c3c(-c4ccc5nc(C)oc5c4)c[nH]c3n2)c(OC)c1
IC50 [1]: 215 nM
IC50 [2]: 238 nM
IC50 [3]: 168 nM
IC50 [4]: < 3.16 nM
IC50 [5]: < 3.16 nM
IC50 [6]: < 3.16 nM
viability, T/C (second compound 0.0316 µM, first compound 0.00316 µM): 92.2%
viability, T/C (second compound 0.0316 µM, first compound 0.01 µM): 88.6%
viability, T/C [7]: 83.5%
viability, T/C [8]: 72.2%
viability, T/C [9]: 38.9%
viability, T/C [10]: 14.8%
viability, T/C (second compound 0.1 µM, first compound 0.00316 µM): 123%
viability, T/C (second compound 0.1 µM, first compound 0.01 µM): 100%
viability, T/C [11]: 108%
viability, T/C [12]: 78.2%
viability, T/C [13]: 40%
viability, T/C [14]: 15%
viability, T/C (second compound 0.316 µM, first compound 0.00316 µM): 90.5%
viability, T/C (second compound 0.316 µM, first compound 0.01 µM): 87.9%
viability, T/C [15]: 74.4%
viability, T/C [16]: 63.5%
viability, T/C [17]: 35.6%
viability, T/C [18]: 10.8%
viability, T/C (second compound 1 µM, first compound 0.00316 µM): 42.2%
viability, T/C (second compound 1 µM, first compound 0.01 µM): 37%
viability, T/C [19]: 27.9%
viability, T/C [20]: 20.6%
viability, T/C [21]: 10.1%
viability, T/C [22]: 1.71%
viability, T/C (second compound 3.16 µM, first compound 0.00316 µM): 32.6%
viability, T/C (second compound 3.16 µM, first compound 0.01 µM): 28.9%
viability, T/C [23]: 22.5%
viability, T/C [24]: 11.8%
viability, T/C [25]: 7.41%
viability, T/C [26]: 1.47%
viability, T/C (second compound 10 µM, first compound 0.00316 µM): 31.1%
viability, T/C (second compound 10 µM, first compound 0.01 µM): 25.5%
viability, T/C [27]: 20%
viability, T/C [28]: 11.7%
viability, T/C [29]: 7.11%
viability, T/C [30]: 1.68%

COc1cccc2c1C(=O)c1c(O)c3c(c(O)c1C2=O)CC(O)(C(=O)CO)CC3OC1CC(N)C(O)C(C)O1 (configuration not stated) + CNC(=O)c1ccc(Nc2nc(OC3CCCC3)c3c(-c4ccc5nc(C)oc5c4)c[nH]c3n2)c(OC)c1
IC50 [1]: 3130 nM
IC50 [2]: 3770 nM
IC50 [3]: 1890 nM
IC50 [4]: < 31.6 nM
IC50 [5]: < 31.6 nM
IC50 [6]: < 31.6 nM
viability, T/C [7]: 101%
viability, T/C [8]: 116%
viability, T/C [9]: 102%
viability, T/C [10]: 78%
viability, T/C (second compound 0.0316 µM, first compound 3.16 µM): 52.3%
viability, T/C (second compound 0.0316 µM, first compound 10 µM): 22.1%
viability, T/C [11]: 122%
viability, T/C [12]: 123%
viability, T/C [13]: 108%
viability, T/C [14]: 85.7%
viability, T/C (second compound 0.1 µM, first compound 3.16 µM): 57%
viability, T/C (second compound 0.1 µM, first compound 10 µM): 18.7%
viability, T/C [15]: 77%
viability, T/C [16]: 63%
viability, T/C [17]: 66.6%
viability, T/C [18]: 71.3%
viability, T/C (second compound 0.316 µM, first compound 3.16 µM): 34.3%
viability, T/C (second compound 0.316 µM, first compound 10 µM): 17.5%
viability, T/C [19]: 43.1%
viability, T/C [20]: 44.3%
viability, T/C [21]: 22.2%
viability, T/C [22]: 23.5%
viability, T/C (second compound 1 µM, first compound 3.16 µM): 25.9%
viability, T/C (second compound 1 µM, first compound 10 µM): 3.3%
viability, T/C [23]: 36.8%
viability, T/C [24]: 21.1%
viability, T/C [25]: 18.2%
viability, T/C [26]: 21.7%
viability, T/C (second compound 3.16 µM, first compound 3.16 µM): 10.2%
viability, T/C (second compound 3.16 µM, first compound 10 µM): 0.97%
viability, T/C [27]: 27.5%
viability, T/C [28]: 12.8%
viability, T/C [29]: 16.8%
viability, T/C [30]: 24.5%
viability, T/C (second compound 10 µM, first compound 3.16 µM): 3.31%
viability, T/C (second compound 10 µM, first compound 10 µM): 1.92%

COC1C=CCC(C)C(C)S(=O)(=O)NC(=O)c2ccc3c(c2)N(CC2CCC21)CC1(CCCc2cc(Cl)ccc21)CO3 (configuration not stated)
viability, T/C (compound 0.0316 µM): 99.2% and 106%
viability, T/C (compound 0.1 µM): 99.9% and 97.5%
viability, T/C (compound 0.316 µM): 103% and 106%
viability, T/C (compound 1 µM): 84.5% and 89.9%
viability, T/C (compound 3.16 µM): 68.4% and 84%
viability, T/C (compound 10 µM): 13.7% and 21.5%
IC50 (curve of compound): 4570 nM and 5820 nM

From PubChem BioAssay AID2060606 (Molecular Pharmacology Branch, DTP, NCI, 2025)
